In ChEMBL document CHEMBL5247626, “In vitro and in vivo biological evaluation of newly synthesized multi-target 20(R)-panaxadiol derivatives for treating Alzheimer's disease” (Eur J Med Chem, 2022):
Activity calls are given as the source filed them. The calls are words filed in the database; no cut-off is given here.

Columns and labels:
PC-12 [1] = experiment: Neuroprotective activity against rat PC12 cells assessed as reduction in amyloid beta (25 to 35)-induced cytotoxicity at 15 uM incubated for 4 hrs followed by amyloid beta (25 to 35) treatment for 24 hrs by MTT assay relative to control; assay type: functional; parameters: scale not given: the % may be the effect or the level left; details: time 28 hrs
Mus musculus [2] = experiment: Antialzheimer activity against amyloid beta (25 to 35)-induced spatial memory deficit ICR mouse model assessed as increase in exploration time spent at 1.3 mg/kg,po observed at 16 to 20 days of administration by morris water maze test; assay type: functional, organism-based; details: time 16-20 day
PC-12 [3] = experiment: Neuroprotective activity against amyloid beta (25 to 35)-induced rat PC12 cells assessed as decrease in total tau protein expression level at 15 uM preincubated for 30 mins followed by amyloid beta (25 to 35) addition and measured after 24 hrs by western blot assay; assay type: functional, cell-based; details: time 24.5 hrs
Mus musculus [4] = experiment: Antialzheimer activity against amyloid beta (25 to 35)-induced cognitive deficit ICR mouse model assessed as increase in discrimination index at 1.3 mg/kg,po observed after 24 hrs of administration by novel object recognition test; assay type: functional, organism-based
Mus musculus [5] = experiment: Antialzheimer activity against amyloid beta (25 to 35)-induced cognitive deficit ICR mouse model assessed as effect on total number of arm enteries at 1.3 mg/kg,po observed after 11 days of administration by Y maze test; assay type: functional, organism-based; details: time 11.0 day
Mus musculus [6] = experiment: Antialzheimer activity against amyloid beta (25 to 35)-induced cognitive deficit ICR mouse model assessed as increase in preferential index at 1.3 mg/kg,po observed after 1 hr of administration by novel object recognition test; assay type: functional, organism-based
Mus musculus [7] = experiment: Antialzheimer activity against amyloid beta (25 to 35)-induced cognitive deficit ICR mouse model assessed as increase in discrimination index at 1.3 mg/kg,po observed after 1 hr of administration by novel object recognition test; assay type: functional, organism-based
Mus musculus [8] = experiment: Antialzheimer activity against amyloid beta (25 to 35)-induced spatial memory deficit ICR mouse model assessed as increase in distance travelled in target quadrant at 1.3 mg/kg,po observed at 16 to 20 days of administration by morris water maze test; assay type: functional, organism-based; details: time 16-20 day
Mus musculus [9] = experiment: Antialzheimer activity against amyloid beta (25 to 35)-induced cognitive deficit ICR mouse model assessed as increase in preferential index at 1.3 mg/kg,po observed after 24 hrs of administration by novel object recognition test; assay type: functional, organism-based
Mus musculus [10] = experiment: Antialzheimer activity against amyloid beta (25 to 35)-induced cognitive deficit ICR mouse model assessed as attenuation of behavioral deficit at 1.3 mg/kg,po observed after 12 to 15 days of administration by Y maze test; assay type: functional, organism-based; details: time 12-15 day
PC-12 [11] = experiment: Neuroprotective activity against amyloid beta (25 to 35)-induced rat PC12 cells assessed as decrease in tau hyperphosphorylation at Thr181 at 15 uM preincubated for 30 mins followed by amyloid beta (25 to 35) addition and measured after 24 hrs by western blot assay; assay type: functional, cell-based; details: time 24.5 hrs
[12] = Permeability of the compound incubated for 4 hrs by PAMPA-BBB assay based HPLC analysis
[13] = target: Amyloid-beta precursor protein (Homo sapiens) (UniProt P05067); experiment: Disaggregation of amyloid beta (25 to 35) (unknown origin) self aggregation at 15 uM incubated for 24 hrs by transmission electron microscopy analysis
Amyloid-beta precursor protein (Homo sapiens), sequence (P05067 whole entry): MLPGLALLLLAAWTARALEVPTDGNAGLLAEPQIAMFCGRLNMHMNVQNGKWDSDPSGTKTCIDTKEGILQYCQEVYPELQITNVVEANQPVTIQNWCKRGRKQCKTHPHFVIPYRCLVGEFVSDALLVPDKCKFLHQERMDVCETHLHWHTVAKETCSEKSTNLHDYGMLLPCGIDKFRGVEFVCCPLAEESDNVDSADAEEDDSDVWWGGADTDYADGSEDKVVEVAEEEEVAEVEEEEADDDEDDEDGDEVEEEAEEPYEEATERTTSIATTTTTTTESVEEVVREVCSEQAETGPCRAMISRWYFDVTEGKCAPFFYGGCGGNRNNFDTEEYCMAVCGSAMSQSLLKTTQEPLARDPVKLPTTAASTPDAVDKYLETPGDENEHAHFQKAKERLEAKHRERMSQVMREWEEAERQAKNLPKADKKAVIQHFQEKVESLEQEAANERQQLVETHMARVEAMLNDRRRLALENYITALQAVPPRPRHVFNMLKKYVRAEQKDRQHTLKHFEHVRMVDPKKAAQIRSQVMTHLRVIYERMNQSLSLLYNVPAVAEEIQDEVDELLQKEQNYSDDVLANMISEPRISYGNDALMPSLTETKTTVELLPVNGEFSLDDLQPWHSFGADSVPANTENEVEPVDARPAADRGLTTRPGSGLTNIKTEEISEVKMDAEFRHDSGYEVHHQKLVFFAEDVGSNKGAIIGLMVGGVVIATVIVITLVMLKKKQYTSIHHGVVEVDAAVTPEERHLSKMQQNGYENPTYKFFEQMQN

| Structure (SMILES) | Activity (PC-12 [1]) | other results |
| --- | --- | --- |
| CC1(C)CCC[C@](C)([C@H]2CC[C@]3(C)[C@@H]2[C@H](O)C[C@@H]2[C@@]4(C)CC[C@H](OC(=O)/C=C/c5ccccc5)C(C)(C)[C@@H]4CC[C@]23C)O1 | 22.78% | – |
| COc1ccc(NC(=O)O[C@H]2CC[C@]3(C)[C@H]4C[C@@H](O)[C@@H]5[C@@H]([C@@]6(C)CCCC(C)(C)O6)CC[C@@]5(C)[C@]4(C)CC[C@H]3C2(C)C)cc1 | 65.27% | – |
| COC(=O)[C@@H](CC(C)C)NC(=O)CCC(=O)O[C@H]1CC[C@]2(C)[C@H]3C[C@@H](O)[C@@H]4[C@@H]([C@@]5(C)CCCC(C)(C)O5)CC[C@@]4(C)[C@]3(C)CC[C@H]2C1(C)C | 16.07% | – |
| C=CCNC(=O)O[C@H]1CC[C@]2(C)[C@H]3C[C@@H](O)[C@@H]4[C@@H]([C@@]5(C)CCCC(C)(C)O5)CC[C@@]4(C)[C@]3(C)CC[C@H]2C1(C)C | 70.06% | – |
| CC(C)NC(=O)O[C@H]1CC[C@]2(C)[C@H]3C[C@@H](O)[C@@H]4[C@@H]([C@@]5(C)CCCC(C)(C)O5)CC[C@@]4(C)[C@]3(C)CC[C@H]2C1(C)C | 69.45% | – |
| CC1(C)CCC[C@](C)([C@H]2CC[C@]3(C)[C@@H]2[C@H](O)C[C@@H]2[C@@]4(C)CC[C@H](OC(=O)NC5CCCCC5)C(C)(C)[C@@H]4CC[C@]23C)O1 | 66.39% | – |
| CC1(C)CCC[C@](C)([C@H]2CC[C@]3(C)[C@@H]2[C@H](O)C[C@@H]2[C@@]4(C)CC[C@H](OC(=O)Nc5ccccc5)C(C)(C)[C@@H]4CC[C@]23C)O1 | 71.32% | – |
| COc1cc(/C=C/C(=O)O[C@H]2CC[C@]3(C)[C@H]4C[C@@H](O)[C@@H]5[C@@H]([C@@]6(C)CCCC(C)(C)O6)CC[C@@]5(C)[C@]4(C)CC[C@H]3C2(C)C)cc(OC)c1OC | 36.23% | – |
| CC1(C)CCC[C@](C)([C@H]2CC[C@]3(C)[C@@H]2[C@H](O)C[C@@H]2[C@@]4(C)CC[C@H](OC(=O)Nc5cccc(F)c5)C(C)(C)[C@@H]4CC[C@]23C)O1 | 65.25% | – |
| CC1(C)CCC[C@](C)([C@H]2CC[C@]3(C)[C@@H]2[C@H](O)C[C@@H]2[C@@]4(C)CC[C@H](OC(=O)/C=C/c5ccc(N6CCOCC6)cc5)C(C)(C)[C@@H]4CC[C@]23C)O1 | 32.75% | – |
| CCCCCCCNC(=O)O[C@H]1CC[C@]2(C)[C@H]3C[C@@H](O)[C@@H]4[C@@H]([C@@]5(C)CCCC(C)(C)O5)CC[C@@]4(C)[C@]3(C)CC[C@H]2C1(C)C | 59.9% | – |
| CCCCCCNC(=O)O[C@H]1CC[C@]2(C)[C@H]3C[C@@H](O)[C@@H]4[C@@H]([C@@]5(C)CCCC(C)(C)O5)CC[C@@]4(C)[C@]3(C)CC[C@H]2C1(C)C | 50.09% | – |
| COC(=O)[C@H](NC(=O)CCC(=O)O[C@H]1CC[C@]2(C)[C@H]3C[C@@H](O)[C@@H]4[C@@H]([C@@]5(C)CCCC(C)(C)O5)CC[C@@]4(C)[C@]3(C)CC[C@H]2C1(C)C)C(C)C | 25.34% | – |
| CC1(C)CCC[C@](C)([C@H]2CC[C@]3(C)[C@@H]2[C@H](O)C[C@@H]2[C@@]4(C)CC[C@H](OC(=O)c5cn(-c6ccc(F)cc6)nn5)C(C)(C)[C@@H]4CC[C@]23C)O1 | 33.68% | – |
| COc1cc2c(cc1OC)C(=O)C(CC1CCN(Cc3ccccc3)CC1)C2 (centres undefined) | – | Activity (Mus musculus [2]): Active; Activity (PC-12 [3]): Active; Activity (Mus musculus [4]): Active; Activity (Mus musculus [5]): inactive; Activity (Mus musculus [6]): inactive; Activity (Mus musculus [7]): inactive; Activity (Mus musculus [8]): Active; Activity (Mus musculus [9]): Active; Activity (Mus musculus [10]): Active; Activity (PC-12 [11]): Active |
| COc1ccc(OP(=O)(Oc2ccc(OC)cc2)O[C@H]2CC[C@]3(C)[C@H]4C[C@@H](O)[C@@H]5[C@@H]([C@@]6(C)CCCC(C)(C)O6)CC[C@@]5(C)[C@]4(C)CC[C@H]3C2(C)C)cc1 | 57.15% | – |
| COc1cc(/C=C/C(=O)O[C@H]2CC[C@]3(C)[C@H]4C[C@@H](O)[C@@H]5[C@@H]([C@@]6(C)CCCC(C)(C)O6)CC[C@@]5(C)[C@]4(C)CC[C@H]3C2(C)C)ccc1O | 55.55% | – |
| NC(=O)N1c2ccccc2C=Cc2ccccc21 [CARBAMAZEPINE] | – | Papp at 4 h [12]: 8.78 ×10⁻⁶ cm/s |

| Structure (SMILES) | Activity (PC-12 [1]) | other results |
| --- | --- | --- |
| CC1(C)CCC[C@](C)([C@H]2CC[C@]3(C)[C@@H]2[C@H](O)C[C@@H]2[C@@]4(C)CC[C@H](OC(=O)CN5CCCCC5)C(C)(C)[C@@H]4CC[C@]23C)O1.Cl | 12.66% | – |
| CCNC(=O)O[C@H]1CC[C@]2(C)[C@H]3C[C@@H](O)[C@@H]4[C@@H]([C@@]5(C)CCCC(C)(C)O5)CC[C@@]4(C)[C@]3(C)CC[C@H]2C1(C)C | 65.69% | – |
| CC1(C)CCC[C@](C)([C@H]2CC[C@]3(C)[C@@H]2[C@H](O)C[C@@H]2[C@@]4(C)CC[C@H](OC(=O)Nc5ccc(Cl)cc5)C(C)(C)[C@@H]4CC[C@]23C)O1 | 64.16% | – |
| CCCNC(=O)O[C@H]1CC[C@]2(C)[C@H]3C[C@@H](O)[C@@H]4[C@@H]([C@@]5(C)CCCC(C)(C)O5)CC[C@@]4(C)[C@]3(C)CC[C@H]2C1(C)C | 65.9% | – |
| CC1(C)CCC[C@](C)([C@H]2CC[C@]3(C)[C@@H]2[C@H](O)C[C@@H]2[C@@]4(C)CC[C@H](OC(=O)CN5CCOCC5)C(C)(C)[C@@H]4CC[C@]23C)O1.Cl | 23.96% | – |
| Cc1ccc(NC(=O)O[C@H]2CC[C@]3(C)[C@H]4C[C@@H](O)[C@@H]5[C@@H]([C@@]6(C)CCCC(C)(C)O6)CC[C@@]5(C)[C@]4(C)CC[C@H]3C2(C)C)cc1 | 64.13% | – |
| CC1(C)CCC[C@](C)([C@H]2CC[C@]3(C)[C@@H]2[C@H](O)C[C@@H]2[C@@]4(C)CC[C@H](OC(=O)c5cn(-c6ccc(Cl)cc6)nn5)C(C)(C)[C@@H]4CC[C@]23C)O1 | 36.15% | – |
| COc1cc(/C=C/C(=O)CC(=O)/C=C/c2ccc(O)c(OC)c2)ccc1O | – | Activity [13]: Active |
| COC(=O)[C@H](NC(=O)CCC(=O)O[C@H]1CC[C@]2(C)[C@H]3C[C@@H](O)[C@@H]4[C@@H]([C@@]5(C)CCCC(C)(C)O5)CC[C@@]4(C)[C@]3(C)CC[C@H]2C1(C)C)c1ccccc1 | 22.85% | – |
| CC1(C)CCC[C@](C)([C@H]2CC[C@]3(C)[C@@H]2[C@H](O)C[C@@H]2[C@@]4(C)CC[C@H](OC(=O)/C=C/c5ccco5)C(C)(C)[C@@H]4CC[C@]23C)O1 | 40.56% | – |
| COc1ccc(-n2cc(C(=O)O[C@H]3CC[C@]4(C)[C@H]5C[C@@H](O)[C@@H]6[C@@H]([C@@]7(C)CCCC(C)(C)O7)CC[C@@]6(C)[C@]5(C)CC[C@H]4C3(C)C)nn2)cc1 | 52.37% | – |
| CC1(C)CCC[C@](C)([C@H]2CC[C@]3(C)[C@@H]2[C@H](O)C[C@@H]2[C@@]4(C)CC[C@H](OC(=O)c5cn(-c6ccccc6)nn5)C(C)(C)[C@@H]4CC[C@]23C)O1 | 25.49% | – |
| CC1(C)CCC[C@](C)([C@H]2CC[C@]3(C)[C@@H]2[C@H](O)C[C@@H]2[C@@]4(C)CC[C@H](OC(=O)CN5CCN(Cc6ccccc6)CC5)C(C)(C)[C@@H]4CC[C@]23C)O1.Cl | 37.37% | – |
| CC1(C)CCC[C@](C)([C@H]2CC[C@]3(C)[C@@H]2[C@H](O)C[C@@H]2[C@@]4(C)CC[C@H](OC(=O)Nc5ccc(F)cc5)C(C)(C)[C@@H]4CC[C@]23C)O1 | 67.4% | – |
| CC1(C)CCC[C@](C)([C@H]2CC[C@]3(C)[C@@H]2[C@H](O)C[C@@H]2[C@@]4(C)CC[C@H](OP(=O)(Oc5ccc(F)cc5)Oc5ccc(F)cc5)C(C)(C)[C@@H]4CC[C@]23C)O1 | 48.68% | – |
| COC(=O)[C@@H](Cc1ccccc1)NC(=O)CCC(=O)O[C@H]1CC[C@]2(C)[C@H]3C[C@@H](O)[C@@H]4[C@@H]([C@@]5(C)CCCC(C)(C)O5)CC[C@@]4(C)[C@]3(C)CC[C@H]2C1(C)C | 33.77% | – |
| CC1(C)CCC[C@](C)([C@H]2CC[C@]3(C)[C@@H]2[C@H](O)C[C@@H]2[C@@]4(C)CC[C@H](OC(=O)c5cn(-c6ccc([N+](=O)[O-])cc6)nn5)C(C)(C)[C@@H]4CC[C@]23C)O1 | 23.76% | – |
